Test results taken from patent US10865176B2, “Small molecule modulators of microRNA-34a” (The Chinese University of Hong Kong, priority 2012, dated 2020).
Marks after values point to notes of the source that are not given here.

Legend:
[1] = test system: miR-34a; test: qRT-PCR of primary and mature miR-34a in HCC cells; type: cell-based, human; conditions: HCC cells (HepG2, FIG. 4B)
Procedure: (§1) Total RNA from cell cultures and HCC xenograft tumors were extracted using Trizol (Invitrogen) according to manufacturer's protocols. Total RNAs were dissolved into nuclease-free ddH2O. For protein extraction, cells and HCC xenograft tumors were lysed in 1×RIPA buffer with 1 mM PMSF and 1× complete protease inhibitor cocktail (Roche, Indianapolis, Ind.). Both RNA and protein were stored at −80° C.
(§2) Total RNA was reversely transcribed into cDNAs using High Capacity cDNA Reverse Transcription Kit (Applied Biosystems, Foster city, CA, USA) and nude RT kit (Invitrogen) individually. qRT-PCR was performed using SYBR Green PCR master mix (TaKaRa, Dalian, China). GAPDH was used as an endogenous control. For measuring miR-34a expression level, qPCR was performed by using SYBR Green PCR master mixture (Invitrogen) and U6 was used as the internal control. All samples were normalized to internal controls and fold changes were calculated by relative quantification (2^−ΔΔct).

[2] = test system: miR-34a; test: miR-34a reporter luciferase assay in Huh7 cells; type: cell-based, human
Procedure: The pMIR-REPORT™ luciferase plasmid (1 μg; Ambion) was sequentially double digested with Sac I and Hind III (10 units each, 50 μL reaction; NEB) and was gel purified. Double stranded insert DNA encoding the miR-34a binding site was synthesized through standard oligonucleotide synthesis methods. The sequences used were Forward: 5′z […]-3′ (SEQ ID NO:1) and Reverse: 5′: […]-3′ (SEQ ID NO:2). The insert was hybridized (heated to 95° C., and cooled to 4° C. over 30 min, then held at 4° C. for 60 min) and ligated with T4 ligase (200 units, 10 μL reaction, 1:10 vector/insert ratio; NEB) into the digested pMIR-REPORT™ luciferase vector. Positive colonies were selected by PCR colony screens, and the construction of the pMIR-REPORT™-miR-34a vector was confirmed by double enzyme digestion with NheI, MluI and Nhe I, Hind III (NEB). The luciferase reporter vector containing the miR-34a promoter was kindly provided by Prof. Mendell J T from Johns Hopkins University (21).
Huh7 cells were seeded into 96-well plates 12 h prior to transfection. MiR-34a reporter and the control vector were respectively co-transfected with Renilla luciferase pRL-SV40 into Huh7 cells. All transfections were performed in triplicate. The cells were incubated at 37° C. for 4 h followed by the replacement of transfection media with standard DMEM growth media with 10 μM of the natural products library (NPL) compounds (Tim Tec; 0.1% DMSO final concentration). This library contains 640 compounds including natural products and their derivatives. After 48 h of incubation, the media was removed and cells were lysed and the luciferase signals were measured by luciferase assay as described below.
MiR-34a reporter, the luciferase reporter vector containing miR-34a promoter and the control vectors were transfected into HCC cells 12 h before compound treatment. The Renilla luciferase vector pRL-SV40 was co-transfected as an internal control. HCC cells were then treated with compound for 48-72 h. The luciferase activity was measured by Dual Luciferase Reporter Assay (Promega) with a Wallac VICTOR^3V luminometer. The ratio of firefly luciferase to Renilla expression was calculated for each of the triplicates.

[3] = test system: miR-34a; test: qRT-PCR of pri-miR-34a and miR-34a in xenografted tumors; type: in vivo, nude mice; conditions: excised tumors after 24 d gavage
Procedure: as §1, §2
(§3) Tumor volume was calculated as [(Length×Width×Height)[…]]. Treatment was continued for 24 d. Finally, all mice were sacrificed and tumors were excised. Tumor weight was recorded.

[4] = test system: Cyclin D1 and Bcl-2; test: qRT-PCR of Cyclin D1 and Bcl-2 in xenografted tumors; type: in vivo, nude mice; conditions: excised tumors after 24 d gavage
Procedure: as §1, §2, §3

[5] = HepG2 xenograft model, survival, body weight and side effects
Procedure: 5×10^6 HepG2 cells were suspended in 100 μl serum-free medium and subcutaneously (s.c.) inoculated into the dorsal flanks of nude mice. When tumors reached 5-10 mm in diameter, mice were randomly divided into 4 groups (n=5). […] Vehicle alone and Sorafenib were used as the negative and positive control respectively. Tumor volumes and body weight were measured once every two days. Tumor volume was calculated as [(Length×Width×Height)±2]. Treatment was continued for 24 d. Finally, all mice were sacrificed and tumors were excised. Tumor weight was recorded.

[6] = test system: HepG2 xenografted tumor; test: HepG2 xenografted nude mice model, tumor growth; type: in vivo; conditions: 50 mg/kg, gavage once every two days
Procedure: as §3

Compound: O=c1[nH]cc(F)c(=O)[nH]1 [5-Fluorouracil, reference compound]
- miR-34a expression after chemotherapeutic drugs [1]: no effect

Compound: COc1ccc(-c2cc(=O)c3c(O)cc(O)cc3o2)cc1 [Acacetin, 5,7-dihydroxy-4′-methoxyflavone]
- function as miR-34a activator, re-assayed in triplicate with miR-34a reporter system [2]: functions as the miR-34a activators are confirmed

Compound: N.N.[Cl][Pt][Cl] [Cisplatin, reference compound]
- miR-34a expression after chemotherapeutic drugs [1]: no effect

Compound: COc1cccc2c1C(=O)c1c(O)c3c(c(O)c1C2=O)C[C@@](O)(C(=O)CO)C[C@@H]3O[C@H]1C[C@H](N)[C@H](O)[C@H](C)O1 [Doxorubicin, reference compound]
- miR-34a expression after chemotherapeutic drugs [1]: no effect

Compound: CNC(=O)c1cc(Oc2ccc(NC(=O)Nc3ccc(Cl)c(C(F)(F)F)c3)cc2)ccn1 [Sorafenib, reference compound]
- pri-miR-34a and miR-34a levels in xenografted tumors [3]: no changes
- Cyclin D1 and Bcl-2 expression in xenografted tumors [4]: no changes
- Body weight (g) initial ([5]; 50 mg/kg group, initial, mean (95% CI)): 20.00(95% CI = 18.76 − 21.24)/ g
- Body weight (g) end ([5]; 50 mg/kg, end of 24 d treatment, mean (95% CI)): 24.00(95% CI = 21.22 − 26.78) g
- Mice survival (n) initial/end ([5]; 50 mg/kg, gavage once every two days, 24 d): 5/5
- Tumor growth inhibition (%) ([6]; 24 d): 84.22%
- Tumor weight (g) ([6]; day 24, mean (95% CI)): 0.186 (95% CI = 0.14 − 0.23)** g
- miR-34a expression after chemotherapeutic drugs [1]: no effect
